According to patent publication US20250154525A1, “PLANT VIRUS MOVEMENT PROTEINS AND METHODS OF USING SAME” (Molecular Transfer, Inc., priority 2016, published 2025):

Columns and labels:
[1] = system: C2C12 Cells; experiment: GFP plasmid transfection with DOTMA/DOPE plus surface ligand peptide, fluorescent plate reader (Example 1); format: cell-based, mouse; conditions: DOTMA/DOPE + peptide linked to R12 or K16; EF1Alpha eGFP plasmid; 42 hours
Method: (§1) Cells were plated to so that on the day of transfection the cells were 70% confluent in 96 well tissue culture plates. A DOMTA/DOPE Lipid solution (1:1 molar ratio) at 2 mg/mL in water were mixed with an equal volume cell surface ligand containing adhesion peptide, the plant virus movement protein, or peptide derived therefrom, that had the nucleic acid binding moiety RRRRRRRRRRRR (SEQ ID NO:109) or KKKKKKKKKKKKKKKK (SEQ ID NO: 102) covalently linked to the N-terminus, or C-terminus of each peptide during peptide synthesis. Peptides were at 2 mg/mL in water. The DOTMA/DOPE and the solution containing the cell surface ligand containing adhesion peptide, the plant virus movement protein, or peptide derived therefrom, surface ligand peptide the was diluted 1 to 1 (v/v) in water. DOMTA/DOPE/PEPTIDE solutions were added to 0.1 mL of a plasmid DNA solution (EF1Alpha eGFP plasmid) at 10 μg/mL in OptiMEM.
(§2) All solutions were at room temperature. A volume of 0.2 mL of a 10 μg/mL solution of DNA was aliquoted into each well of a non-tissue cultured treated plate. 1-12 μL of transfection reagents were added to DNA solutions respectively. The transfection reagent and DNA solution was mixed by pipetting up and down twice. Transfection complexes were formed for 10 minutes. After 10 minutes, 0.01 or 0.02 mL of the transfection complex was added to cells. HuVEC, HeLa, human adult keratinocytes, human primary adult fibroblast, and A549 cells all respectively received 0.01 mL of the transfection complex. Human skeletal muscle cells, mouse C2C12 cells, and Jurkat, cells received 0.02 mL of the transfection complex. Cells were incubated for 42 hours at 37° C. at 5% CO2. Plates were read on a fluorescent plate reader. Cells were also examined visually under a microscope to assess the extent of transfection (in terms of the percent of cells transfected) with a fluorescent microscope. Other modes of analysis, for example quantification with B-galactocidase or luciferase reports plasmids can also be used.
(§3) Surface ligand that caused increase expression of GFP over the lipid DOTMA with no surface ligand were considered to enhance transfection or had higher % cells transfected were considered to enhance transfection. Peptides that gave greater than 2-fold enhancement are noted in bold and could be further optimized by adding different transfection enhancers or could be used with different cationic lipids or polymers.
(§4) Tables 2-7, below, provide the results of the transfection enhancements with the various cell types, while Table 8 lists the peptides that were determined by visual inspection to enhance the transfection of the denoted cell lines over the lipid DOTMA.

[2] = system: some examined cell types; experiment: Summary of Example 1: transfection expression and % cells transfected over the no peptide control; format: cell-based; conditions: on some examined cell types
Method: as §1, §2, §3

[3] = system: HeLa Cells; experiment: GFP transfection with DOTMA/SEQ ID NO: 72 (fusogenic peptide)/peptide compared with Lipofectamine 2000; format: cell-based
Method: as §1, §2
The fusogenic peptide was added to the DOMTA/peptide formulation to achieve a final concentration of 0.1 mg/mL to see if transfection reagents were further enhanced by the addition of a fusogenic peptide and could provide higher transfection efficiency into HeLa cells and expression than the commercially available Lipofectamine 2000.

[4] = system: Human Fibroblast Cells; experiment: GFP plasmid transfection with DOTMA/DOPE plus surface ligand peptide, fluorescent plate reader (Example 1); format: cell-based; conditions: DOTMA/DOPE + peptide linked to R12 or K16; EF1Alpha eGFP plasmid; 42 hours
Method: as §1, §2, §3, §4

[5] = system: HuVec Cells; experiment: as above; format: cell-based; conditions: DOTMA/DOPE + peptide linked to R12 or K16; EF1Alpha eGFP plasmid; 42 hours
Method: as §1, §2, §3, §4

[6] = system: HeLa Cells; experiment: as above; format: cell-based; conditions: DOTMA/DOPE + peptide linked to R12 or K16; EF1Alpha eGFP plasmid; 42 hours
Method: as §1, §2, §3, §4

[7] = system: NL-1 iPS Cells; experiment: as above; format: cell-based; conditions: DOTMA/DOPE + peptide linked to R12 or K16; EF1Alpha eGFP plasmid; 42 hours
Method: as §1, §2, §3, §4

[8] = system: Jurkat Cells; experiment: as above; format: cell-based; conditions: DOTMA/DOPE + peptide linked to R12 or K16; EF1Alpha eGFP plasmid; 42 hours
Method: as §1, §2, §3, §4

| Substance | Relative Fluorescence of Transfection of C2C12 Cells (RF) [1] | transfection expression and % cells transfected over the no peptide control [2] | Relative Fluorescence DOTMA/SEQ ID NO: 72/Peptide, HeLa Cells (RF) ([3]; 0.1 μL of DOTMA/SEQ ID NO: 72/Peptide in well of a 96 well plate) | Relative Fluorescence DOTMA/SEQ ID NO: 72/Peptide, HeLa Cells (RF) ([3]; 0.2 μL of DOTMA/SEQ ID NO: 72/Peptide in well of a 96 well plate) | Relative Fluorescence DOTMA/SEQ ID NO: 72/Peptide, HeLa Cells (RF) ([3]; 0.3 μL of DOTMA/SEQ ID NO: 72/Peptide in well of a 96 well plate) | Relative Fluorescence DOTMA/SEQ ID NO: 72/Peptide, HeLa Cells (RF) ([3]; 0.4 μL of DOTMA/SEQ ID NO: 72/Peptide in well of a 96 well plate) | Relative Fluorescence of Transfection of Human Fibroblast Cells (RF) [4] | Relative Fluorescence of Transfection of HuVec Cells (RF) [5] | Relative Fluorescence of Transfection of HeLa Cells (RF) [6] | Relative Fluorescence of Transfection of NL-1 iPS Cells (RF) [7] | Relative Fluorescence of Transfection of Jurkat Cells (RF) [8] |
| --- | --- | --- | --- | --- | --- | --- | --- | --- | --- | --- | --- |
| 379 (TAGSCLRKF) [compound 379] | 3189 | increased transfection expression and the % cells transfected | 50018 | 47049 | 39036 | 26448 | 8520 | 14573 | 27424 | 6894 | 7711 |
| 226 (ANGQTPIQRYIK) [compound 226] | 1664 | increased transfection expression and the % cells transfected | – | – | – | – | 3431 | 20864 | 7340 | 24920 | 12976 |
| 220 (ATETTITIS) [compound 220] | 1470 | increased transfection expression and the % cells transfected | – | – | – | – | 4516 | 8737 | 9398 | 15892 | 6428 |
| 205 (AASIKVAVSADR) [compound 205] | 2102 | increased transfection expression and the % cells transfected | – | – | – | – | 8550 | 8309 | 26368 | 13140 | 2298 |
| 239 (KNSFMALYLSKGRLVFALG) [compound 239] | 10620 | increased transfection expression and the % cells transfected | – | – | – | – | 4084 | 1404 | 2717 | 4129 | 2343 |
| 361 (YIGSR) [compound 361] | 585 | increased transfection expression and the % cells transfected | – | – | – | – | 7014 | 6017 | 3698 | 9363 | 7006 |
| 354 (SINNTAVMQRLT) [compound 354] | 1912 | increased transfection expression and the % cells transfected | – | – | – | – | 4998 | 19284 | 4403 | 24043 | 16705 |
| 229 (PPFLMLLKGSTR) [compound 229] | 1164 | increased transfection expression and the % cells transfected | – | – | – | – | 6811 | 5452 | 8816 | 13491 | 8079 |
| 256 (RQVFQVAYIIIKA) [compound 256] | 3207 | increased transfection expression and the % cells transfected | – | – | – | – | 2656 | 3030 | 2243 | 1825 | 3322 |
| 359 (KAFDITYVRLKF) [compound 359] | 5693 | increased transfection expression and the % cells transfected | – | – | – | – | 3206 | 3024 | 3136 | 5548 | 1880 |
| 338 (GTPGPQGIA) [compound 338] | 2290 | increased transfection expression and the % cells transfected | – | – | – | – | 5625 | 12000 | 6241 | 17288 | 4475 |
| 332 (TWYKIAFQRNRK) [compound 332] | 537 | increased transfection expression and the % cells transfected | – | – | – | – | 5178 | 4221 | 9198 | 8725 | 3052 |
| 230 (WQPPRARI) [compound 230] | 2606 | increased transfection expression and the % cells transfected | – | – | – | – | 11771 | 9067 | 8944 | 14524 | 10229 |
